Data as given in patent US5753710A, “Substituted benzyloxycarbonylguanidines, a process for their preparation, their use as a medicament or diagnostic, and a medicament containing them” (Hoechst Aktiengesellschaft, priority 1995, dated 1998).
Structures can show the parent of a compound that is named as a salt.

Target: T1, Na^+ /H^+ exchanger of rabbit erythrocytes (Oryctolagus cuniculus, UniProt P23791)
T1 construct: endogenous in cells; host or cells: erythrocytes in blood of cholesterol-fed New Zealand White rabbits (Ivanovas)
T1 sequence (P23791 whole entry): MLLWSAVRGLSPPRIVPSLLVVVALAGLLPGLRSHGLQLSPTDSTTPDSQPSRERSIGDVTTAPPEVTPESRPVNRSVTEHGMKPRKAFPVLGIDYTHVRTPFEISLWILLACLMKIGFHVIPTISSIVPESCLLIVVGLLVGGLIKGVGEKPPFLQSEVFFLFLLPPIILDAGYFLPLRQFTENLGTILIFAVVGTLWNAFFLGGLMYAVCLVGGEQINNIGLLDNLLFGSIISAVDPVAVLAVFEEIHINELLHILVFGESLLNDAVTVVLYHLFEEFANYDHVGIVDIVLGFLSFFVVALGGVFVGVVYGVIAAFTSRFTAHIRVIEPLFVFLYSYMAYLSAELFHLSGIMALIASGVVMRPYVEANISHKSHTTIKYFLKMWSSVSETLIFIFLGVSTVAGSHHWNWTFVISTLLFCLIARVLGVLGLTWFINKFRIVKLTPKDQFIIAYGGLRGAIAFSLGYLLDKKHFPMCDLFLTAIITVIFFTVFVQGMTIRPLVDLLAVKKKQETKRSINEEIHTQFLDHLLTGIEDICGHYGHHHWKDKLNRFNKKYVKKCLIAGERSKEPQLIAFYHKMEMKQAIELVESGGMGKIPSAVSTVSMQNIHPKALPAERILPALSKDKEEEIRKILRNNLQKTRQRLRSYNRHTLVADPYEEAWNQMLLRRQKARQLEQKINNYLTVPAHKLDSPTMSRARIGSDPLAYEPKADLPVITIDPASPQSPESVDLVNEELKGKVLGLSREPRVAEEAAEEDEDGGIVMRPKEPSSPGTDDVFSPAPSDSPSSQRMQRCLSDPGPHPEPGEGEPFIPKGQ
Test: Inhibition of the Na^+ /H^+ exchanger of rabbit erythrocytes (amiloride-sensitive Na^+ influx, flame photometry)
Format: cell-based, rabbit (New Zealand White)
Conditions: erythrocytes of rabbits fed 2% cholesterol diet for six weeks; pH 7.4, 37° C.; hyperosmolar salt/sucrose medium
From the text: Inhibition of the Na^+ /H^+ exchanger of rabbit erythrocytes
New Zealand White rabbits (Ivanovas) received a standard diet containing 2% cholesterol for six weeks in order to activate the Na^+ /H^+ exchange and thus to be able to determine, by flame photometry, the Na^+ influx into the erythrocytes via Na^+ /H^+ exchange. The blood was removed from the aural arteries and rendered incoagulable using 25 IU of potassium heparin. A part of each sample was used for the duplicate determination of the hematocrit by means of centrifugation. Aliquots of in each case 100 μl were used for measuring the initial Na^+ content of the erythrocytes.
In order to determine the amiloride-sensitive sodium influx, 100 μl of each blood sample were in each case incubated, at pH 7.4 and 37° C., in 5 ml of a hyperosmolar salt/sucrose medium (mmol/l: 140 NaCl, 3 KCl, 150 sucrose, 0.1 ouabain, 20 tris(hydroxymethyl)aminomethane). […] The intracellular sodium content was determined by flame photometry.
The net influx of Na^+ was calculated from the difference between the initial sodium values and the sodium content of the erythrocytes following incubation. The amiloride-inhibitable sodium influx was calculated from the difference in the sodium content of the erythrocytes following incubation with and without amiloride 3×10^-4 mol/l. […]

Work on `NC(N)=NC(=O)OCc1ccc(Oc2cccnc2)c(C(F)(F)F)c1` [Example 1, 4-(3-Pyridyloxy)-3-trifluoromethyl-benzyloxycarbonylguanidine, dihydrochloride] yielded an IC50 of under 1000 nM.
